This passage reports viability, Activity and IC50 results from ChEMBL document CHEMBL5365407, “Design, synthesis and biological evaluation of nitric oxide-releasing 5-cyano-6-phenyl-2, 4-disubstituted pyrimidine derivatives” (Bioorg Med Chem Lett, 2023).

The subject of test [1] is MGC-803. Put plainly: Induction of apoptosis in human MGC-803 cells assessed as viable cells at 1 uM by Annexin V-FITC/PI staining based flow cytometric analysis (reference value: 94.4%). It counts as functional. Particulars: read-out: Activity.
Test [2] relates to MGC-803. Put plainly: Induction of apoptosis in human MGC-803 cells assessed as viable cells at 0.5 uM by Annexin V-FITC/PI staining based flow cytometric analysis (reference value: 94.4%). The format is functional. Particulars: read-out: Activity.
The subject of test [3] is MGC-803. Put plainly: Induction of reactive oxygen species generation in human MGC-803 cells by DCFH-DA staining fluorescence assay. The note with it: dose 0.5-2 µM. The format is functional, cell-based.
For test [4], the system named is MGC-803. Put plainly: Induction of apoptosis in human MGC-803 cells assessed as late apoptotic cells at 2 uM by Annexin V-FITC/PI staining based flow cytometric analysis (reference value: 2.14 %). The format is functional.
A further test relates to ECa-109 cell line. Put plainly: Antiproliferative activity against human Eca-109 cells measured after 72 hrs by MTT assay. It counts as functional, cell-based. The note with it: ECa-109, 72 h.
A further test has as its system PC-3. Put plainly: Antiproliferative activity against human PC-3 cells measured after 72 hrs by MTT assay. It counts as functional, cell-based. Particulars: PC-3, 72 h.
The subject of test [5] is MGC-803. Put plainly: Antiproliferative activity against human MGC-803 cells assessed as decrease in number of colonies by crystal violet staining based assay. It counts as functional, cell-based. The note with it: dose 0.5-2 µM.
The test system of test [6] is MGC-803. Put plainly: Induction of cell cycle arrest in human MGC-803 cells assessed as accumulation of cells at G0/G1 phase at 0.5 uM incubated for 24 hrs by PI staining based flow cytometry analysis (reference value: 56.68 %). The format is functional.
Test [7] concerns MGC-803. Put plainly: Induction of cell cycle arrest in human MGC-803 cells assessed as accumulation of cells at G0/G1 phase at 1 uM incubated for 24 hrs by PI staining based flow cytometry analysis (reference value: 56.68 %). The format is functional.
The test system of test [8] is MGC-803. Put plainly: Induction of cell cycle arrest in human MGC-803 cells assessed as accumulation of cells at G0/G1 phase at 2 uM incubated for 24 hrs by PI staining based flow cytometry analysis (reference value: 56.68 %). The format is functional.
Test [9] concerns MGC-803. Put plainly: Induction of cell cycle arrest in human MGC-803 cells assessed as accumulation of cells at S phase at 0.5 uM incubated for 24 hrs by PI staining based flow cytometry analysis (reference value: 29.00 %). The format is functional.
Test [10] concerns MGC-803. Put plainly: Induction of cell cycle arrest in human MGC-803 cells assessed as accumulation of cells at S phase at 1 uM incubated for 24 hrs by PI staining based flow cytometry analysis (reference value: 29.00 %). It counts as functional.
Test [11] concerns MGC-803. Put plainly: Induction of cell cycle arrest in human MGC-803 cells assessed as accumulation of cells at S phase at 2 uM incubated for 24 hrs by PI staining based flow cytometry analysis (reference value: 29.00 %). The format is functional.
Test [12] relates to MGC-803. Put plainly: Induction of cell cycle arrest in human MGC-803 cells assessed as accumulation of cells at G2/M phase at 0.5 uM incubated for 24 hrs by PI staining based flow cytometry analysis (reference value: 14.32 %). It counts as functional.
In test [13] the test system is MGC-803. Put plainly: Induction of cell cycle arrest in human MGC-803 cells assessed as accumulation of cells at G2/M phase at 1 uM incubated for 24 hrs by PI staining based flow cytometry analysis (reference value: 14.32 %). It counts as functional.
The test system of test [14] is MGC-803. Put plainly: Induction of cell cycle arrest in human MGC-803 cells assessed as accumulation of cells at G2/M phase at 2 uM incubated for 24 hrs by PI staining based flow cytometry analysis (reference value: 14.32 %). The format is functional.
Test [15] relates to MGC-803. Put plainly: Induction of morphological changes in human MGC-803 cells assessed as appearance of dense and concentrated granules at 0.5 to 2 uM for 48 hrs by DAPI staining based fluorescence microscopy. The format is functional, cell-based. Particulars: dose 0.5-2 µM.
Test [16] relates to MGC-803. Put plainly: Induction of apoptosis in human MGC-803 cells assessed as viable cells at 2 uM by Annexin V-FITC/PI staining based flow cytometric analysis (reference value: 94.4%). The format is functional. The note with it: read-out: Activity.
For test [17], the system named is MGC-803. Put plainly: Induction of apoptosis in human MGC-803 cells assessed as early apoptotic cells at 0.5 uM by Annexin V-FITC/PI staining based flow cytometric analysis (reference value: 2.79%). It counts as functional.
Test [18] has as its system MGC-803. Put plainly: Induction of apoptosis in human MGC-803 cells assessed as early apoptotic cells at 1 uM by Annexin V-FITC/PI staining based flow cytometric analysis (reference value: 2.79%). It counts as functional.
The test system of test [19] is MGC-803. Put plainly: Induction of apoptosis in human MGC-803 cells assessed as early apoptotic cells at 2 uM by Annexin V-FITC/PI staining based flow cytometric analysis (reference value: 2.79%). The format is functional.
For test [20], the system named is MGC-803. Put plainly: Induction of apoptosis in human MGC-803 cells assessed as late apoptotic cells at 0.5 uM by Annexin V-FITC/PI staining based flow cytometric analysis (reference value: 2.14 %). The format is functional.
Test [21] concerns MGC-803. Put plainly: Induction of apoptosis in human MGC-803 cells assessed as late apoptotic cells at 1 uM by Annexin V-FITC/PI staining based flow cytometric analysis (reference value: 2.14 %). It counts as functional.
Test [22] has as its system MGC-803. Put plainly: Induction of apoptosis in human MGC-803 cells assessed as necrotic cells at 0.5 uM by Annexin V-FITC/PI staining based flow cytometric analysis (reference value: 0.69%). The format is functional.
Test [23] relates to MGC-803. Put plainly: Induction of apoptosis in human MGC-803 cells assessed as necrotic cells at 1 uM by Annexin V-FITC/PI staining based flow cytometric analysis (reference value: 0.69%). It counts as functional.
Test [24] relates to MGC-803. Put plainly: Induction of apoptosis in human MGC-803 cells assessed as necrotic cells at 2 uM by Annexin V-FITC/PI staining based flow cytometric analysis (reference value: 0.69%). The format is functional.
A short description of test [25]: Induction of NO release in phosphate buffer containing excess L-cysteine measured up to 14 hrs by Griess assay. The format is functional.
Test [26] concerns MGC-803. Put plainly: Antiproliferative activity against human MGC-803 assessed as cell survival by MTT assay relative to control. It counts as functional.
For test [27], the system named is MGC-803. Put plainly: Antiproliferative activity against human MGC-803 assessed as reduction in cell survival measured after 24 hrs in presence of NO scavenger hemoglobin at 1 to 20 uM by MTT assay. It counts as functional, cell-based.
The subject of test [28] is MGC-803. Put plainly: Antiproliferative activity against human MGC-803 cells assessed as reduction in colony area at 0.5 to 2 uM by crystal violet staining based assay. Particulars: dose 0.5-2 µM. The format is functional, cell-based.
Test [29] deals with MGC-803. Put plainly: Induction of morphological changes in human MGC-803 cells assessed as nuclear shrinkage at 0.5 to 2 uM incubated for 48 hrs by DAPI staining based fluorescence microscopy. It counts as functional, cell-based. Particulars: dose 0.5-2 µM.
The test system of test [30] is MGC-803. Put plainly: Induction of morphological changes in human MGC-803 cells assessed as nuclear condensation at 0.5 to 2 uM incubated for 48 hrs by DAPI staining based fluorescence microscopy. It counts as functional, cell-based. The note with it: dose 0.5-2 µM.
Test [31] concerns MGC-803. Put plainly: Induction of morphological changes in human MGC-803 cells assessed as appearance of broken cell at 0.5 to 2 uM incubated for 48 hrs by DAPI staining based fluorescence microscopy. The format is functional. The note with it: dose 0.5-2 µM.
For test [32], the system named is MGC-803. Put plainly: Induction of apoptosis in human MGC-803 cells by Annexin V-FITC/PI staining based flow cytometric analysis. The format is functional, cell-based. Particulars: dose 0.5-2 µM.
Test [33] has as its system MGC-803. Put plainly: cells. Particulars: Homo sapiens, MGC-803, 72 h.
Description: Antiproliferative activity against human MGC-803 cells measured after 72 hrs by MTT assay
A further test deals with MCF7. Put plainly: cells. The note with it: Homo sapiens, MCF7, 72 h.
The subject of another test is Bel7402/5-FU. Put plainly: Antiproliferative activity against human BEL-7402/5-FU cell. It counts as functional, cell-based.
The target in test [34] is T1, Tyrosine-protein kinase JAK3 (Homo sapiens, UniProt P52333).
T1 sequence (P52333 whole entry): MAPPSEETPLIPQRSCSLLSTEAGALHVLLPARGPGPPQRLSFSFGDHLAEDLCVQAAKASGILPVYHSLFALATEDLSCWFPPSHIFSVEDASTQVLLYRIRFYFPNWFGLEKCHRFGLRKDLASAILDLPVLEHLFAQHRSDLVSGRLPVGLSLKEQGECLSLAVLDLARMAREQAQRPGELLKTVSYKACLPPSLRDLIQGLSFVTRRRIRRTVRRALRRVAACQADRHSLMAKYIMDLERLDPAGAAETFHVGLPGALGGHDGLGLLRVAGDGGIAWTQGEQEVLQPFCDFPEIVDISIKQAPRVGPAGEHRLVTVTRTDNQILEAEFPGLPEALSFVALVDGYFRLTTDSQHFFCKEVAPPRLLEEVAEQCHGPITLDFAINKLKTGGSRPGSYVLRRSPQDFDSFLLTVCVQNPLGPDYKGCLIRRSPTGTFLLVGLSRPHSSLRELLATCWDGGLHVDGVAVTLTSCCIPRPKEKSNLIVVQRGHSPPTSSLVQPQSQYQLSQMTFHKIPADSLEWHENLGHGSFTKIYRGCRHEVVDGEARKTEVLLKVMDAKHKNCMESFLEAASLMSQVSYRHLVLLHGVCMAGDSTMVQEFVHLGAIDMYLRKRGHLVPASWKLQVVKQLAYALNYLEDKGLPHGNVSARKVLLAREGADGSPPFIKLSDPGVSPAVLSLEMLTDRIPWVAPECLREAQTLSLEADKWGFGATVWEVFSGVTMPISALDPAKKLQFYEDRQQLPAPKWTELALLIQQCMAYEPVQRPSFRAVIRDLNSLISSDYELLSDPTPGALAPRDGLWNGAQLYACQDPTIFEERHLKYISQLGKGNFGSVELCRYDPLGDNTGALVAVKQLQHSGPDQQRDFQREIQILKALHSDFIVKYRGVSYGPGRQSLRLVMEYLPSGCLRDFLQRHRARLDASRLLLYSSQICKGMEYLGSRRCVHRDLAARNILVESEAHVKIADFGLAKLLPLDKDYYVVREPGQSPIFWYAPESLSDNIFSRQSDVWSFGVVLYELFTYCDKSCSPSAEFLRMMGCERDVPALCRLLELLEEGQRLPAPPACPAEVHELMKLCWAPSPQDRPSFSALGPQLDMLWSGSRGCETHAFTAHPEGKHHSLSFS
Put plainly: biochemical. The format is cell-based, Sf9.
Description: Inhibition of recombinant human N-terminal GST-tagged JAK3 (781 to end residues) expressed in baculovirus infected Sf9 cells using poly (Glu,Tyr) 4:1 as substrate incubated for 60 mins in presence of ATP by ADP-Glo kinase assay

Test [35] addresses Lysine-specific histone demethylase 1A (Homo sapiens, UniProt O60341). Put plainly: Inhibition of LSD1 (unknown origin).

Activity calls are given as the source filed them. The rule behind the calls is not given here.

Description for MCF7: Antiproliferative activity against human MCF7 cells measured after 72 hrs by MTT assay

As for `COc1cc(Nc2nc(SCC(=O)N3CCN(CCOc4no[n+]([O-])c4S(=O)(=O)c4ccccc4)CC3)nc(-c3ccccc3)c2C#N)cc(OC)c1OC`, in the test on MGC-803 [1], the viability at 1 µM worked out at 65.1%. For the same compound, the viability at 0.5 µM in the test with MGC-803 [2] worked out at 75.2%. Besides, the Activity entry with MGC-803 [3] was “Dose-Dependent Effect”; in the test with MGC-803 [4] it was 28.7%; with MGC-803 [5] it was “Dose-Dependent Effect”; with MGC-803 [6] it was 60.59%; in the test on MGC-803 [7] it was 65.87%; in the test on MGC-803 [8], 74.33%. Further, the Activity with MGC-803 [9] is 24.83%; with MGC-803 [10] it was 19.71%; in the test on MGC-803 [11], 15.27%; in the test with MGC-803 [12], 14.58%; with MGC-803 [13] it was 14.43%; with MGC-803 [14] it was 10.4%. Moreover, the Activity in the test on MGC-803 [17] is 6.5%; in the test with MGC-803 [18], 7.71%; in the test with MGC-803 [19], 10.4%; with MGC-803 [20], 15.1%; in the test with MGC-803 [21], 24%; in the test with MGC-803 [22], 3.22%. Also, the Activity in the test on MGC-803 [23] was 3.21%; in the test on MGC-803 [24], 2.69%; in the test with MGC-803 [26], 20%; in the test on MGC-803 [32] it was “Dose-Dependent Effect”. Further, the IC50 in the test with ECa-109 cell line was found to be 2.21 µM; in the test with PC-3 it was 1.14 µM; in the test with MGC-803 [33] it was 0.95 µM; in the test with MCF7 it was 2.03 µM. Also, the outcome (in the test on MGC-803 [15]; in [25]; in the test on MGC-803 [28]; in the test with MGC-803 [29]; with MGC-803 [30]; in the test with MGC-803 [31]) was Active. Also, the viability at 2 µM in the test on MGC-803 [16] turned out to be 58.3%. Moreover, the result in the test with MGC-803 [27] was inactive.
As for `O=C1C(NCCOc2no[n+]([O-])c2S(=O)(=O)c2ccccc2)=CC(=O)c2ncccc21`, in the test with Bel7402/5-FU, the IC50 was 0.42 µM.
Compound `N#Cc1ccccc1Nc1nc(Nc2ccc(NC(=O)CN3CCOCC3)cc2)ncc1Cl` displayed an IC50 in [34] of 0.0207 µM.
The compound `COc1ccc(/C=N/NC2NC(SCC(C)C)=NC(c3ccc(OC)cc3)=C2C#N)cc1` (centres undefined) gave an IC50 in test [35] of 0.956 µM.
